Our source for the Ki and inhibition values is ChEMBL document CHEMBL1133152, “Design and synthesis of mimics of S-adenosyl-L-homocysteine as potential inhibitors of erythromycin methyltransferases” (Bioorg Med Chem Lett, 2000).

Bounds are passed on as bounds.

In experiment [1] the target is T1, rRNA adenine N-6-methyltransferase (Streptococcus pneumoniae, UniProt P21236).
T1 sequence (P21236 whole entry): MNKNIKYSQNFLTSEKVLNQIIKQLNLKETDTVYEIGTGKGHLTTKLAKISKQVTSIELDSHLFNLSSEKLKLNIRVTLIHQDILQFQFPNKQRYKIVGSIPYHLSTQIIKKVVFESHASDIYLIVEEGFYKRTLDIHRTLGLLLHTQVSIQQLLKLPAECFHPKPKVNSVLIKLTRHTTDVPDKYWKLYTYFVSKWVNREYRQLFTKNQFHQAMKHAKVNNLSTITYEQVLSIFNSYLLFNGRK
Briefly: Inhibition of ErmAM methylase.

Experiment [2] can be described thus: The compound was tested for its ability to inhibit ErmC methylase at 100 uM.
Experiment [3] can be described thus: The compound was tested for its ability to inhibit ErmAM methylase at 100 uM.
The nature of experiment [4]: The compound was tested for its ability to inhibit ErmC methylase; Range 50-100.
Experiment [5] in a line: The compound was tested for its ability to inhibit ErmC methylase.
Experiment [6] can be described thus: The compound was tested for its binding ability to inhibit ErmAM methylase.

On to `Nc1nc(CC2O[C@H](COCc3ccccc3)[C@@H](O)[C@H]2O)nc(NC2Cc3ccccc3C2)n1` (stereo not given in full), for which the Ki in experiment [1] is above 100 µM. Moreover, the inhibition is 5.5% in experiment [2] and 16.9% in experiment [3].

Take `Nc1nc(CC2O[C@H](CSCCc3ccccc3)[C@@H](O)[C@H]2O)nc(NC2Cc3ccccc3C2)n1` (stereo not given in full): the figures for the Ki in experiment [1] and in experiment [4] were above 100 µM and 100 µM, respectively. Also, the values for the inhibition in experiment [2] and in experiment [3] were 39.9% and 18%, respectively.

On to `Nc1nc(C[C@@H]2O[C@H](COCc3ccc(Br)cc3)[C@@H](O)[C@H]2O)nc(NC2Cc3ccccc3C2)n1`, for which the Ki was around 40 µM in experiment [5] and around 75 µM in experiment [1].

As for `Nc1nc(CC2O[C@H](CSc3ccccc3)[C@@H](O)[C@H]2O)nc(NC2Cc3ccccc3C2)n1` (stereo not given in full), the Ki in experiment [5] and in experiment [1] was above 100 µM each time. The figures for the inhibition in experiment [2] and in experiment [3] were 28% and 3.4%, respectively.

For the molecule `Nc1nc(CC2O[C@H](CSCc3ccc(Cl)cc3)[C@@H](O)[C@H]2O)nc(NC2Cc3ccccc3C2)n1` (stereo not given in full), the inhibition constant Ki in experiment [5] is around 80 µM; in experiment [1], around 55 µM.

Consider `Nc1nc(CC[C@@H]2O[C@H](COCc3ccc(Br)cc3)[C@@H](O)[C@H]2O)nc(NC2Cc3ccccc3C2)n1`, for which the inhibition constant (Ki) in experiment [1] was around 50 µM; in experiment [4], 100 µM. The inhibition worked out at 37.5% in experiment [2] and 55% in experiment [3].

On to `Nc1nc(C[C@@H]2O[C@H](COC/C=C/c3ccccc3)[C@@H](O)[C@H]2O)nc(NC2Cc3ccccc3C2)n1`, for which the values for the Ki in experiment [5] and in experiment [1] were around 60 µM and around 90 µM, respectively.

`Nc1nc(NC2Cc3ccccc3C2)nc(N2CCCCC2)n1`: in experiment [6], the Ki amounted to 8 µM. This lies in the single-digit micromolar range.

For the molecule `Nc1nc(NC2Cc3ccccc3C2)nc([C@H]2C[C@@H](O)[C@H](O)[C@H](OCc3ccccc3)C2)n1`, the Ki in experiment [5] and in experiment [1] was above 100 µM each time. In addition, the inhibition is 17.7% in experiment [2] and 9.9% in experiment [3].

Take `Nc1nc(CC2O[C@H](CSCc3ccccc3)[C@@H](O)[C@H]2O)nc(NC2Cc3ccccc3C2)n1` (stereo not given in full): the Ki in experiment [5] and in experiment [1] was above 100 µM throughout. The inhibition in experiment [2] and in experiment [3] was 10% in each case.

The molecule `Nc1nc(NC2Cc3ccccc3C2)cc(-c2ccc(NCCCc3ccccc3O)cc2)n1` displayed a Ki in experiment [6] of 10 µM.

Take `Cc1ccc(COC[C@H]2O[C@@H](Cc3nc(N)nc(NC4Cc5ccccc5C4)n3)[C@H](O)[C@@H]2O)cc1`: the Ki in experiment [5] and in experiment [1] was above 100 µM in each case. The inhibition was 0% in experiment [2] and 15% in experiment [3].

By Ki is commonly meant a measure of affinity in units of concentration, obtained from inhibition or displacement. The inhibition is how much of the control response was suppressed.
